This is an account of results in patent publication US11408038B2, “N-cadherin and FGFR1 and/or FGFR4 for use in predicting the response of patients to a lung cancer treatment and method and kit based on said use” (FUNDACIÓN DE INVESTIGACIÓN HOSPITAL 12 DE OCTUBRE, priority 2017, dated 2022).

The subject of experiment [1] is mesenchymal bladder cancer cell lines. The conditions noted are these: cited from earlier work.
The subject of a further experiment is A549 cell line. Description: Cell proliferation (growth curve) with FGFR inhibitors, A549. Format: cell-based. The conditions noted are these: A549, endogenous FGFR1 and FGFR4, low N-cadherin; 0.5 μM or 1 μM. As to the method:
(§1) 3,500 cells were seeded per well in 12-well plates. At 24 hours (day 0) the cells of the first point of the curve were fixed, and every 24-48 hours a new point of the curve was fixed and the medium of the rest was changed. The fixed plates were preserved with the cells in PBS at 4° C. until all the points of the curve were fixed. The plates were then stained with crystal violet for 20 minutes, washed and allowed to dry. Once dry, 20% acetic acid was added to each well to dilute the crystal violet, and the absorbance at 595 nm was measured on a VICTOR optical reading device (PerkinElmer). All absorbances were standardised in relation to the absorbance of day 0 of each experimental condition. Finally, this standardised value (growth relative to day 0 on the Y-axis) was plotted against time (days, X-axis).
(§2) To verify whether N-cadherin expression is decisive in the determination of the efficacy of FGFR inhibition in lung cancer treatment, the efficacy of two selective FGFR inhibitors, in terms of growth inhibition, was tested. For this purpose, cell lines with high endogenous expression of FGFR1 and/or FGFR4 and low expression of N-cadherin (A549 and H460), or with high endogenous expression of FGFR1 and/or FGFR4 and high expression of N-cadherin (H520 and H226) were selected. […]

In the next experiment the test system is H460 cell line. The experiment can be described thus: Cell proliferation (growth curve) with FGFR inhibitors, H460. The format is cell-based. The conditions noted are these: H460, endogenous FGFR1, low N-cadherin; 0.5 μM or 1 μM. How it is done:
as §1, §2

A further experiment relates to H226 cell line. The experiment can be described thus: Cell proliferation (growth curve) with FGFR inhibitors, H226. The conditions noted are these: H226, endogenous FGFR1 and high N-cadherin; 0.5 μM or 1 μM. The format is cell-based. As to the method: as §1, §2
The test system of a further experiment is H520 cell line. Description: Cell proliferation (growth curve) with FGFR inhibitors, H520. Format: cell-based. The conditions noted are these: H520, endogenous FGFR1, FGFR4 and high N-cadherin; 0.5 μM or 1 μM. How it is done:
as §1, §2

In the next experiment the test system is lung cancer cell lines. Description: In vitro experiments with the two FGFR inhibitors, growth inhibition overall. The conditions noted are these: BGJ398 versus AZD4547. Format: cell-based. As to the method: To verify whether N-cadherin expression is decisive in the determination of the efficacy of FGFR inhibition in lung cancer treatment, the efficacy of two selective FGFR inhibitors, in terms of growth inhibition, was tested. For this purpose, cell lines with high endogenous expression of FGFR1 and/or FGFR4 and low expression of N-cadherin (A549 and H460), or with high endogenous expression of FGFR1 and/or FGFR4 and high expression of N-cadherin (H520 and H226) were selected. In these lines, an analysis was performed on the effect on cell proliferation of two selective FGFR inhibitors: BGJ398 and AZD4547 (SELLECKCHEM, Refs. S2183 and S2801 respectively) with regard to time.

Experiment [2] relates to FGFR-related signalling pathways. The experiment can be described thus: Western blot of FGFR-related signalling pathways in treated PDX TP60. The conditions noted are these: TP60 tumours, low N-cadherin. Format: in vivo, mice. How it is done: (§3) The total proteins of the tumours from xenografts were obtained by adding the lysis buffer to the previously pulverized tissue fragment in a mortar pre-cooled with liquid nitrogen, to avoid thawing the fragment; it was then incubated on ice for 2 hours, stirring every 10 minutes, and the volume was collected in 2 mL tubes that were centrifuged at 15,000×g for 10 minutes at 4° C. to eliminate the remnants of undissolved tissue, and the supernatant was stored at −80° C. The extraction buffer and the quantification method used were the same as in the case of protein extraction from cell lines.
Protein immunodetection was performed according to a standard protocol on PDVF membranes (GE Healthcare). The proteins were separated on SDS polyacrylamide gels using a 1X Tris HCl 0.13 M electrophoresis buffer, 0.95 M glycine, 0.5% SDS, and were transferred to PDVF membranes, using a Trans-Blot Turbo kit (BioRad). The transfer was performed at 400 mA for 3 hours in transfer buffer (0.025 M TrisHCl, 0.2 M glycine, 20% methanol). The membranes were blocked for 1 hour under stirring with the blocking buffer (TBS, 0.1% Tween20 and 1% BSA). […] The detection was performed using a chemiluminescent reaction (Clarity ECL, Biorad) and visualization using luminescence detection equipment (ChemiDoc, BioRad). […]
(Immunoblotting shows a protein as a band on a membrane.)

Experiment [3] deals with TP114 epidermoid carcinoma PDX (high N-cadherin). The experiment can be described thus: PDX treatment, tumour growth, model TP114. Format: in vivo, mice. The conditions noted are these: 7.5 mg/kg/day oral. How it is done:
(§4) Tumours from patients with non-small cell lung cancer, covered with Matrigel (BD #356234) are implanted in the flank of immunocompromised nude mice of 5-6 weeks of age, under anaesthesia by isofluorane inhalation and under analgesia by buprenorphine. To perform the implant, a small cut is made in the flank of the mouse under anaesthesia and analgesia and the tumour fragment is inserted, about 100-150 mm^3 in volume.
(§5) The size of the tumours generated by the xenografts was measured weekly with a measuring gauge. The shortest and longest length of each tumour was measured and the tumour volume was calculated with the formula: 0.5×(longest dimension)×(shortest dimension)^2.
(§6) For this purpose, the model of interest was implanted in 4-6 mice per treatment group as stated above, and the growth of the tumours generated was monitored. […]
(§7) The growth of the tumours is shown in graphs of tumour growth against time, where each measurement of tumour volume is relativised with the initial measurement after commencing the treatment, and the median and mean error are shown for each treatment group. The variation in tumour volume is represented with bar graphs which show the increase (or decrease), expressed as a percentage, of the volume of each tumour with regard to the initial volume in each treatment group

Experiment [4] relates to TP13 epidermoid carcinoma PDX (low N-cadherin). Description: PDX treatment, tumour growth, model TP13. Format: in vivo, mice. The conditions noted are these: 7.5 mg/kg/day oral, Monday to Friday. How it is done: as §4, §5, §6, §7
Experiment [5] concerns TP91 adenocarcinoma PDX (high N-cadherin). Description: PDX treatment, tumour growth, model TP91. The format is in vivo, mice. The conditions noted are these: 7.5 mg/kg/day oral. As to the method: as §4, §5, §6, §7
The test system of experiment [6] is FGFR-related signalling pathways (pSTAT3, pAKT, p-p42/p44). The experiment can be described thus: Western blot of FGFR-related signalling pathways in treated PDX TP91. Format: in vivo, mice. The conditions noted are these: TP91 tumours, high N-cadherin. As to the method:
as §3
Protein immunodetection was performed according to a standard protocol on PDVF membranes (GE Healthcare). The proteins were separated on SDS polyacrylamide gels using a 1X Tris HCl 0.13 M electrophoresis buffer, 0.95 M glycine, 0.5% SDS, and were transferred to PDVF membranes, using a Trans-Blot Turbo kit (BioRad). The transfer was performed at 400 mA for 3 hours in transfer buffer (0.025 M TrisHCl, 0.2 M glycine, 20% methanol). The membranes were blocked for 1 hour under stirring with the blocking buffer (TBS, 0.1% Tween20 and 1% BSA). Subsequently, the membranes were incubated with the appropriate dilution of primary antibody for 16 hours at 4° C. After this incubation, the membranes were washed with washing buffer (TBS 0.1% Tween-20) and incubated with a 1:5,000 dilution of the appropriate peroxidase-conjugated secondary antibody, for one hour at ambient temperature. The detection was performed using a chemiluminescent reaction (Clarity ECL, Biorad) and visualization using luminescence detection equipment (ChemiDoc, BioRad).
The route of administration of the drug was oral.

Experiment [7] concerns TP96 epidermoid carcinoma PDX (high FGFR1, FGFR4 and N-cadherin). As to the method:
as §4, §5
For this purpose, the model of interest was implanted in 4-6 mice per treatment group as stated above, and the growth of the tumours generated was monitored. […] Once the groups were established, the treatments were commenced, lasting between 3 and 5 weeks, depending on the growth rate of each model and on the drug or drugs employed.
The concentration of AZD4547 employed was 7.5 mg/kg/day, administered from Monday to Friday. The route of administration of the drug was oral. At the end of the treatment, the mice were sacrificed and the tumours processed and stored as stated above.
as §7

Experiment [8] relates to TP60 adenocarcinoma PDX (low N-cadherin). Description: PDX treatment, tumour growth, model TP60. The conditions noted are these: 7.5 mg/kg/day oral, Monday to Friday. The format is in vivo, mice. As to the method: as §4, §5, §6, §7

As to `CN1CCN(c2ccc3nc(-c4c(N)c5c(F)cccc5[nH]c4=O)[nH]c3c2)CC1` [TI-258], the “responsiveness of mesenchymal versus epithelial bladder cancer cell lines” value in experiment [1] is recorded as “more responsive”.

Take `CCN1CCN(c2ccc(Nc3cc(N(C)C(=O)Nc4c(Cl)c(OC)cc(OC)c4Cl)ncn3)cc2)CC1` [BGJ398]: the “effect on cell growth (relative growth with regard to time)” value is recorded as “do not exert a significant effect” with A549 cell line, “do not exert a significant effect” in the experiment with H460 cell line, “reduce the growth” in the experiment on H226 cell line and “reduce the growth” in the experiment with H520 cell line.

Take AZD4547: the “efficacy in the in vitro experiments, compared between the two inhibitors” value with lung cancer cell lines was “greatest efficacy”. The “activation of the FGFR-related signalling pathways studied” value in experiment [2] is recorded as “does not alter the activation”. For the same compound, the “effect on cell growth (relative growth with regard to time)” value in the experiment on A549 cell line is listed as “do not exert a significant effect”; with H460 cell line it was “do not exert a significant effect”; with H226 cell line, “reduce the growth”; in the experiment on H520 cell line, “reduce the growth”. For the same compound, the “average reduction in volume with regard to the control condition” value in experiment [3] (TP114, high N-cadherin, Monday to Friday) came to 25.5%; in experiment [5] (TP91, high N-cadherin, Monday to Friday), 14.4%; in experiment [7] (TP96, high FGFR1, FGFR4 and N-cadherin, 7.5 mg/kg/day oral, Monday to Friday) it was 1.4%. In addition, the “complete tumour regression, fraction of the tumours treated” value in experiment [3] (TP114) is recorded as “⅖”; in experiment [5] (TP91), “⅕”; in experiment [7] (TP96, 7.5 mg/kg/day oral), “⅖”. The “effect on tumour growth” value in experiment [4] and in experiment [8] was “no effect” throughout. For the same compound, the “levels of pAKT” value in [6] is on record as “reduction”. In [6], the “levels of pSTAT3” value was “reduction”. Moreover, the p-p42/p44 activation entry in experiment [6] is “modest reduction”. Moreover, the “response to the treatment” value in experiment [7] (TP96, partial response = average reduction in tumour volume of 50% or greater vs volume at commencement of treatment) was “partial response”.
